Article PMC3716607, “Inhibition of Histo-blood Group Antigen Binding as a Novel Strategy to Block Norovirus Infections” (PLoS ONE, 2013)
Read-outs that look alike come from different tables or passages of the source.

Assays:
[1] = target: VA387 P dimers binding to type A and B saliva HBGAs (Norovirus GII.4 (Human calicivirus NLV/VA98387/1998), UniProt Q913Z3); experiment: biochemical; set-up: species or system GII.4 NoV (VA387)
Method: Saliva-based NoV-HBGA binding assays were performed as described previously using P dimers of VA387 (GII.4) as NoV surrogates and saliva samples and/or synthetic oligosaccharides as HBGA sources, [34], [35]. Briefly, synthetic oligosaccharides and/or boiled saliva samples with defined HBGAs phenotype were coated on 96-well microtiter plates, after blocking with nonfat milk, P dimer of VA387 were added. The bound P dimer was detected using a guinea pig antiserum against NoVs VLPs, followed by the addition of horseradish peroxidase (HRP)-conjugated goat anti-guinea pig IgG. The bound HRP conjugates were colorized by the TMB kit (Kirkegaard & Perry Laboratories), which was read an EIA spectrum reader (Tecan). The synthetic oligosaccharide-PAA conjugates (2 µg/ml, GlycoTech Corporation, Rockville, MD) were captured to a microtiter plate through coated streptavidin (5 µg/ml).
Blocking effects of the hit compounds were measured by a pre-incubation of the P dimers with the compounds at given concentrations for 30 min before the P dimers were added to the coated saliva samples or HBGA oligosaccharides in a binding assay. The blocking activity of a compound was defined as its concentration yielding 50% inhibition (IC50) in the binding assay. IC50 calculation was performed using Probit regression analysis and correlation analysis between IC50 and Ki values was performed with nonparametric Spearman’s r (two-tailed) by using SPSS statistical software version 13.0 (SPSS, Chicago, IL).

MTS cytotoxicity assay = type: cell-based, human (HeLa); rhesus monkey (LLC-MK2)
Method: This assay was performed using CellTiter 96 aqueous nonradioactive cell proliferation kits (Promega, Madison, WI) as described elsewhere. Briefly, HeLa and LLC-MK2 cells were seeded at 5×10^4 cells/ml onto a 96-well plate overnight. After an incubation with each compound at various concentrations for 3 days (the compound was added one time at the beginning of the incubation), the culture medium was replaced with fresh one with 100 µl of MTS-phenazine methosulfate/well. After a further incubation at 37°C for 2 h, the color products of MTS were measured with a plate reader at 490 nm. The cytotoxicities of individual compounds were indicated by the decrease in cellular reduction of MTS into the colored product. The 50% cytotoxic concentrations (CC50 s) were determined as the concentrations of the compounds that caused 50% inhibition of cell growth compared with that of control cells without a compound.

[2] = Activity (IC50), against binding of VA387 to the A and B saliva
[3] = IC50 Saliva A, blocking assay, type A saliva, mean ± standard deviation
[4] = IC50 Saliva B, blocking assay, type B saliva, mean ± standard deviation
[5] = 3 days incubation, HeLa and LLC-MK2 cells, cell line not given, read-out: CC50

Sequence of VA387 P dimers binding to type A and B saliva HBGAs (Q913Z3 entry or part of it): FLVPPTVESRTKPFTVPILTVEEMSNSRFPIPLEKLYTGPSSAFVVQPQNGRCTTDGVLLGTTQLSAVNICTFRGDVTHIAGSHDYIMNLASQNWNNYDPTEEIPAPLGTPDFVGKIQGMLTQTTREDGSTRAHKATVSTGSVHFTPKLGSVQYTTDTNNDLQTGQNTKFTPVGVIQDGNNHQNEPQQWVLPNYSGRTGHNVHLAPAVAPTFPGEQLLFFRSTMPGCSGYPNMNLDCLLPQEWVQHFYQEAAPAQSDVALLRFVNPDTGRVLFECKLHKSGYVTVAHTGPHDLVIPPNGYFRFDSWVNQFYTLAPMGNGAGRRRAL

Row | SMILES | IC50 [1, 2] [µM] | IC50 [1, 3] [µM] | IC50 [1, 4] [µM] | also measured
1 | CC1CCc2c(sc3ncn(C(C)C(=O)N/N=C/c4c(O)ccc5ccccc45)c(=O)c23)C1 (centres unmarked) [ZINC06166484] | – | – | – | IC50 ([1]; read-out: IC50 Saliva A, blocking assay, type A saliva, mean ± standard deviation): 17 ± 1.06 µM; IC50 ([1]; read-out: IC50 Saliva B, blocking assay, type B saliva, mean ± standard deviation): 16.8 ± 0.87 µM
2 | C/C(=N/O)C1=CCC2C3CC[C@H]4C/C(=N\O)CC[C@]4(C)C3CC[C@]12C (some centres unmarked) [ZINC04041115] | 1 to 10 | 2.38 ± 0.15 | 2.54 ± 0.21 | CC50 at 3 days (MTS cytotoxicity assay): 203 µM
3 | Cc1noc2c1C1(C)CCC3C(CC=C4CC(O)CCC43C)C1C2 (centres unmarked) [ZINC04014899] | – | 33.9 ± 1.67 | 34.5 ± 1.93 | –
4 | CC12CCC(O)C=C1CCC1C2CCC2(C)C1CCC21CCC(=O)O1 (centres unmarked) [ZINC04081424] | 20 to 40 | – | – | –
5 | CC12CCC3C(CCC4CC(=O)CCC43C)C1CCC2O (centres unmarked) [ZINC03814360] | – | 36.9 ± 1.47 | 35.7 ± 1.06 | –
6 | COc1cc([N+](=O)[O-])cc2c1NC(c1ccccn1)C1CC=CC21 (centres unmarked) [ZINC04450155] | 20 to 40 | 24.2 ± 0.74 | 24.3 ± 0.87 | –
7 | Cc1ccc(C2CC(=O)Nc3c2ccc2ccccc32)cc1[N+](=O)[O-] (centres unmarked) [ZINC00181174] | – | 33.5 ± 0.68 | 33.7 ± 1.27 | –
8 | O=C1CC(c2ccc([N+](=O)[O-])cc2)c2ccc3ccccc3c2N1 (centres unmarked) [ZINC00124088] | – | 24.5 ± 0.98 | 26.3 ± 1.24 | –
9 | CC12CCC(=NOCC(=O)NCC(=O)O)C=C1CCC1C2CCC2(C)C(O)CCC12 (centres unmarked) [ZINC04084183] | 10 to 20 | – | – | –
10 | O=[N+]([O-])c1ccc2c(c1)C1C=CCC1C(C1CC=CCC1)N2 (centres unmarked) [ZINC04725822] | – | 13.2 ± 1.04 | 13.1 ± 0.87 | –
11 | CC(=O)OCC(=O)C1CCC2C3CC=C4CC(O)CCC4(C)C3CCC12C (centres unmarked) [ZINC00652738] | – | 30.9 ± 1.04 | 30.1 ± 1.35 | –
12 | CC(=O)C1=CCC2C3CC=C4CC(O)CCC4(C)C3CCC12C (centres unmarked) [ZINC00968234] | 20 to 40 | – | – | –
13 | CC(CCC(=O)O)C1CCC2C3CC=C4CC(O)CCC4(C)C3CCC12C (centres unmarked) [ZINC04831336] | 1 to 10 | 7.63 ± 0.27 | 7.65 ± 0.33 | CC50 at 3 days (MTS cytotoxicity assay; [5]): 225 µM
14 | C[C@]12CC[C@H](O)C[C@@H]1CC[C@@H]1[C@@H]2CC[C@@]2(C)[C@H]1CC[C@]2(C)O [ZINC05223451] | 1 to 10 | 3.37 ± 0.13 | 3.39 ± 0.24 | CC50 at 3 days (MTS cytotoxicity assay; [5]): 171 µM
15 | CC(=O)C1CCC2C3CCC4CC(O)CCC4(C)C3CCC12C (centres unmarked) [ZINC05260830] | 1 to 10 | – | – | CC50 at 3 days (MTS cytotoxicity assay; [5]): 267 µM
16 | CC1(C)CC(=O)C2=C(C1)c1c(ccc3ccccc13)NC2 [ZINC00128665] | – | 14.1 ± 0.53 | 14.9 ± 0.71 | –
17 | Nc1ccc2c(c1)C1C=CCC1C(c1ccc([N+](=O)[O-])cc1)N2 (centres unmarked) [ZINC04095376] | – | 12.6 ± 0.87 | 12.8 ± 0.64 | –
18 | C[C@]12CCC3C(CC[C@H]4CC=CC[C@]34C)C1CC/C2=N/NC(N)=S (some centres unmarked) [ZINC04026813] | 1 to 10 | 8.7 ± 1.03 | 8.97 ± 0.63 | CC50 at 3 days (MTS cytotoxicity assay): 212 µM
19 | O=C(O)c1ccc(C2Nc3c(F)cccc3C3C=CCC32)cc1 (centres unmarked) [ZINC04298453] | – | 38 ± 2.01 | 39.4 ± 1.53 | –
